Where two headings read alike, the source gives them in different places.
Test system: PANC-1 cells
Experiment: cell viability assay in PANC-1 cells (compound alone, + 100 ng/ml TNFa, + 300 ng/ml TRAIL)
Format: cell-based
[1] = Homo sapiens, PANC-1, compound alone, Tables 6-10, read-out: IC50 (μM) in cell viability assay in PANC-1 cells: Compound alone
[2] = with 100 ng/ml TNFa, Tables 6-10, read-out: IC50 (μM) in cell viability assay in PANC-1 cells: Compound + 100 ng/ml TNFa
[3] = with 300 ng/ml TRAIL, Tables 6-10, read-out: IC50 (μM) in cell viability assay in PANC-1 cells: Compound + 300 ng/ml TRAIL
[4] = Homo sapiens, PANC-1, compound alone, Tables 15-18, read-out: IC50 (uM) in cell viability assay in PANC-1 cells: Cmpnd alone
[5] = with 100 ng/ml TNFa, Tables 15-18, read-out: IC50 (uM) in cell viability assay in PANC-1 cells: Cmpnd + 100 ng/ml TNFa
[6] = with 300 ng/ml TRAIL, Tables 15-18, read-out: IC50 (uM) in cell viability assay in PANC-1 cells: Cmpnd + 300 ng/ml TRAIL
[7] = Homo sapiens, PANC-1 cells, compound alone, read-out: IC50 (uM) in cell viability assay in PANC-1 cells, Cmpnd alone
[8] = PANC-1 cells, + 100 ng/ml TNFa, read-out: IC50 (uM) in cell viability assay in PANC-1 cells, Cmpnd + 100 ng/ml TNFa
[9] = PANC-1 cells, + 300 ng/ml TRAIL, read-out: IC50 (uM) in cell viability assay in PANC-1 cells, Cmpnd + 300 ng/ml TRAIL

## CN[C@@H](C)C(=O)N[C@H](C(=O)N1C[C@@H](NC(=O)c2cccc(C(=O)N[C@H]3C[C@@H](C(=O)N[C@@H]4CCCc5ccc(OC)cc54)N(C(=O)[C@@H](NC(=O)[C@H](C)NC)C(C)(C)C)C3)c2)C[C@H]1C(=O)N[C@@H]1CCCc2ccc(OC)cc21)C(C)(C)C [Compound 44]
[1]
  IC50: > 1 µM
[2]
  IC50: 0.215 µM
[3]
  IC50: 0.198 µM

## CN[C@@H](C)C(=O)N[C@H](C(=O)N1C[C@@H](NC(=O)c2cc(C(=O)O)cc(C(=O)N[C@H]3C[C@@H](C(=O)N[C@@H]4CCCc5ccccc54)N(C(=O)[C@@H](NC(=O)[C@H](C)NC)C(C)(C)C)C3)c2)C[C@H]1C(=O)N[C@@H]1CCCc2ccccc21)C(C)(C)C [Compound 127]
[1]
  IC50: > 1 µM
[2]
  IC50: 0.032 µM
[3]
  IC50: 0.028 µM

## CN[C@@H](C)C(=O)N[C@H](C(=O)N1C[C@@H](NC(=O)c2cccc(C(=O)N[C@H]3C[C@@H](C(=O)NCCc4ccc(O)cc4)N(C(=O)[C@@H](NC(=O)[C@H](C)NC)C(C)(C)C)C3)c2)C[C@H]1C(=O)NCCc1ccc(O)cc1)C(C)(C)C [Compound 3]
[1]
  IC50: > 1 µM
[2]
  IC50: 0.5 µM
[3]
  IC50: 0.42 µM

## CN[C@@H](C)C(=O)N[C@H](C(=O)N1CCC[C@H]1C(=O)N[C@H](COC(=O)c1cccc(C(=O)OC[C@@H](NC(=O)[C@@H]2CCCN2C(=O)[C@@H](NC(=O)[C@H](C)NC)C(C)(C)C)c2ccccc2)c1)c1ccccc1)C(C)(C)C [Compound P4-23]
[4]
  IC50: > 1 µM
[5]
  IC50: 0.014 µM
[6]
  IC50: 0.006 µM

## CN[C@@H](C)C(=O)N[C@H](C(=O)N1C[C@@H](Oc2cccc(C#CC#Cc3cccc(O[C@H]4C[C@@H](C(=O)N[C@@H]5CCCc6ccccc65)N(C(=O)[C@@H](NC(=O)[C@H](C)NC)C(C)(C)C)C4)c3)c2)C[C@H]1C(=O)N[C@@H]1CCCc2ccccc21)C(C)(C)C [Compound P3-103]
[7]
  IC50: > 1 µM
[8]
  IC50: 0.0316 µM
[9]
  IC50: 0.037 µM

## CN[C@@H](C)C(=O)N[C@H](C(=O)N[C@@H](CCNC(=O)c1cc(N)cc(C(=O)N[C@H]2C[C@@H](C(=O)N[C@@H]3CCCc4ccccc43)N(C(=O)[C@@H](NC(=O)[C@H](C)NC)C(C)(C)C)C2)c1)C(=O)N[C@H](C)C(C)C)C(C)C [Compound 180]
[1]
  IC50: > 1 µM
[2]
  IC50: 0.124 µM
[3]
  IC50: 0.201 µM

## CN[C@@H](C)C(=O)N[C@H](C(=O)N[C@@H](CCNC(=O)c1cccc(C(=O)N[C@H]2C[C@@H](C(=O)N[C@@H]3CCCc4ccccc43)N(C(=O)[C@@H](NC(=O)[C@H](C)NC)C3CCCCC3)C2)c1)C(=O)N[C@H](C)C(C)C)C(C)C [Compound 181]
[1]
  IC50: > 1 µM
[2]
  IC50: 0.037 µM
[3]
  IC50: 0.072 µM

## CCCC[C@@H](C)NC(=O)c1cc(C(=O)N[C@H]2C[C@@H](C(=O)N[C@@H]3CCCc4ccccc43)N(C(=O)[C@@H](NC(=O)[C@H](C)NC)C(C)(C)C)C2)cc(C(=O)N[C@H]2C[C@@H](C(=O)N[C@@H]3CCCc4ccccc43)N(C(=O)[C@@H](NC(=O)[C@H](C)NC)C(C)(C)C)C2)c1 [Compound 129]
Compound alone, Tables 6-10, read-out: IC50 (μM) in cell viability assay in PANC-1 cells: Compound alone
  IC50: > 1 µM
[2]
  IC50: 0.006 µM
[3]
  IC50: 0.004 µM

## CN[C@@H](C)C(=O)N[C@@H](CC#CC#CC[C@H](NC(=O)[C@H](C)NC)C(=O)N1CCC[C@H]1CNC(=O)c1ccccn1)C(=O)N1CCC[C@H]1CNC(=O)c1ccccn1 [Compound 15]
[1]
  IC50: > 1 µM
[2]
  IC50: 0.209 µM
[3]
  IC50: 0.235 µM

## CN[C@@H](C)C(=O)NC(C(=O)N[C@@H](CCC(=O)NCc1cn([C@H]2C[C@@H](C(=O)N[C@@H]3CCCc4ccccc43)N(C(=O)[C@@H](NC(=O)[C@H](C)NC)C(C)(C)C)C2)nn1)C(=O)N[C@H](C)C(C)C)C(C)C (stereo partly drawn) [Compound 202]
[1]
  IC50: > 1 µM
[2]
  IC50: 0.679 µM
[3]
  IC50: 0.674 µM

## CN[C@@H](C)C(=O)N[C@@H](CCNC(=O)NCC[C@H](NC(=O)[C@H](C)NC)C(=O)N1CCC[C@H]1C(=O)N[C@@H]1CCCc2ccccc21)C(=O)N1CCC[C@H]1C(=O)N[C@@H]1CCCc2ccccc21 [Compound P2-39]
[4]
  IC50: > 1 µM
[5]
  IC50: 0.349 µM
[6]
  IC50: 0.225 µM

## CN[C@@H](C)C(=O)N[C@H](C(=O)N1C[C@@H](NC(=O)c2[nH]c(C(=O)N[C@H]3C[C@@H](C(=O)N[C@H](C)c4ccccc4)N(C(=O)[C@@H](NC(=O)[C@H](C)NC)C(C)(C)C)C3)c3c2OCCO3)C[C@H]1C(=O)N[C@H](C)c1ccccc1)C(C)(C)C [Compound P3-95]
[7]
  IC50: > 1 µM
[8]
  IC50: 0.006 µM
[9]
  IC50: 0.006 µM

## CN[C@@H](C)C(=O)N[C@@H](CCCCCC[C@H](NC(=O)[C@H](C)NC)C(=O)N1CCC[C@H]1CNC(=O)c1ccccn1)C(=O)N1CCC[C@H]1CNC(=O)c1ccccn1 [Compound P2-47]
[4]
  IC50: > 1 µM
[5]
  IC50: 0.108 µM
[6]
  IC50: 0.153 µM

## CN[C@@H](C)C(=O)N[C@H](C(=O)N1C[C@@H](NC(=O)c2cccc(C(=O)N[C@H]3C[C@@H](C(=O)NC4CCCc5cccc(F)c54)N(C(=O)[C@@H](NC(=O)[C@H](C)NC)C(C)(C)C)C3)c2)C[C@H]1C(=O)NC1CCCc2cccc(F)c21)C(C)(C)C (single isomer, unassigned) [Compound 70]
[1]
  IC50: > 1 µM
[2]
  IC50: 0.0011 µM
[3]
  IC50: 0.0033 µM

## CN[C@@H](C)C(=O)N[C@H](C(=O)N1C[C@@H](NC(=O)C2CCCC(C(=O)N[C@H]3C[C@@H](C(=O)N[C@H](C)c4ccccc4)N(C(=O)[C@@H](NC(=O)[C@H](C)NC)C(C)(C)C)C3)C2)C[C@H]1C(=O)N[C@H](C)c1ccccc1)C(C)(C)C (stereo partly drawn) [Compound P3-96]
[7]
  IC50: > 1 µM
[8]
  IC50: 0.055 µM
[9]
  IC50: 0.006 µM

## CN[C@@H](C)C(=O)N[C@H](C(=O)N1C[C@@H](NC(=O)c2cccc(C(=O)N[C@H]3C[C@@H](C(=O)NCCc4ccc(O)c(O)c4)N(C(=O)[C@@H](NC(=O)[C@H](C)NC)C(C)(C)C)C3)c2)C[C@H]1C(=O)NCCc1ccc(O)c(O)c1)C(C)(C)C [Compound 9]
[1]
  IC50: > 1 µM
[2]
  IC50: > 1 µM
[3]
  IC50: > 1 µM

## CN[C@@H](C)C(=O)N[C@H](C(=O)N1C[C@@H](NC(=O)c2cc(C(=O)N[C@H]3C[C@@H](C(=O)N[C@H](C)Cc4ccccc4)N(C(=O)[C@@H](NC(=O)[C@H](C)NC)C(C)(C)C)C3)[nH]n2)C[C@H]1C(=O)N[C@H](C)Cc1ccccc1)C(C)(C)C [Compound 11]
[1]
  IC50: > 1 µM
[2]
  IC50: 0.834 µM
[3]
  IC50: 0.545 µM

## CN[C@@H](C)C(=O)N[C@@H](CCCCNC(=O)c1cccc(C(=O)NCCCC[C@H](NC(=O)[C@H](C)NC)C(=O)N2C[C@@H](Oc3ccccc3)C[C@H]2C(=O)N[C@@H]2CCCc3ccccc32)c1)C(=O)N1C[C@@H](Oc2ccccc2)C[C@H]1C(=O)N[C@@H]1CCCc2ccccc21 [Compound P2-36]
[4]
  IC50: > 1 µM
[5]
  IC50: 0.079 µM
[6]
  IC50: 0.09 µM

## CN[C@@H](C)C(=O)N[C@H](C(=O)N[C@@H](CCNC(=O)c1cccc(C(=O)N[C@H]2C[C@@H](C(=O)N[C@@H]3CCCc4ccccc43)N(C(=O)[C@@H](NC(=O)[C@H](C)NC)C(C)(C)C)C2)c1)C(=O)N[C@H](C)C(C)C)C(C)(C)C [Compound 176]
[1]
  IC50: > 1 µM
[2]
  IC50: 0.0199 µM
[3]
  IC50: 0.0388 µM

## CN[C@@H](C)C(=O)N[C@H](C(=O)N1C[C@@H](NC(=O)c2ccc3cc(C(=O)NCC[C@H](NC(=O)[C@@H](NC(=O)[C@H](CO)NC)C4CCCCC4)C(=O)N[C@H](C)C(C)C)ccc3c2)C[C@H]1C(=O)N[C@@H]1CCCc2ccccc21)C(C)(C)C [Compound H-10]
[4]
  IC50: > 1 µM
[5]
  IC50: 0.001 µM
[6]
  IC50: 0.0009 µM

## CN[C@@H](C)C(=O)N[C@@H](C)C(=O)N1C[C@@H](NC(=O)c2cccc(C(=O)N[C@H]3C[C@@H](C(=O)N[C@@H]4CCCc5ccccc54)N(C(=O)[C@@H](NC(=O)[C@H](C)NC)C(C)(C)C)C3)c2)C[C@H]1C(=O)N[C@H](C)c1ccccc1 [Compound 172]
[1]
  IC50: > 1 µM
[2]
  IC50: 0.025 µM
[3]
  IC50: 0.028 µM

## CN[C@@H](C)C(=O)N[C@H](C(=O)N1CCC[C@H]1Cn1nnnc1Sc1ccccc1)[C@@H](C)OCC#Cc1cccc(C#CCO[C@@H](C)[C@@H](NC(=O)[C@@H](C)NC)C(=O)N2CCC[C@@H]2Cn2nnnc2Sc2ccccc2)c1 [Compound 116]
[1]
  IC50: > 1 µM
[2]
  IC50: 0.0046 µM
[3]
  IC50: 0.0059 µM

## CN[C@@H](C)C(=O)N[C@H](C(=O)N1C[C@@H](NC(=O)c2cccc(C(=O)N[C@H]3C[C@@H](C(=O)N[C@@H]4CCCc5cc(O)ccc54)N(C(=O)[C@@H](NC(=O)[C@H](C)NC)C(C)(C)C)C3)c2)C[C@H]1C(=O)N[C@@H]1CCCc2cc(O)ccc21)C(C)(C)C (single isomer, unassigned) [Compound 61]
[1]
  IC50: > 1 µM
[2]
  IC50: 0.324 µM
[3]
  IC50: 0.439 µM

## CN[C@@H](C)C(=O)N[C@H](C(=O)N1C[C@@H](NC(=O)c2cccc(C(=O)N[C@H]3C[C@@H](C(=O)N[C@H](C)Cc4ccccc4)N(C(=O)[C@@H](NC(=O)[C@H](C)NC)C(C)(C)C)C3)c2)C[C@H]1C(=O)NC(C)Cc1ccccc1)C(C)(C)C (stereo partly drawn) [Compound 10]
[1]
  IC50: > 1 µM
[2]
  IC50: 0.065 µM
[3]
  IC50: 0.085 µM

## CN[C@@H](C)C(=O)N[C@@H](CCCCCC[C@H](NC(=O)[C@H](C)NC)C(=O)N1CCC[C@H]1CNC(=O)c1cnccn1)C(=O)N1CCC[C@H]1CNC(=O)c1cnccn1 [Compound 30]
[1]
  IC50: > 1 µM
[2]
  IC50: > 1 µM
[3]
  IC50: > 1 µM

## CN[C@@H](C)C(=O)N[C@@H](CC(=O)NCCNC(=O)C[C@H](NC(=O)[C@H](C)NC)C(=O)N1CCC[C@H]1C(=O)N[C@@H]1CCCc2ccccc21)C(=O)N1CCC[C@H]1C(=O)N[C@@H]1CCCc2ccccc21 [Compound P2-40]
[4]
  IC50: > 1 µM
[5]
  IC50: 0.19 µM
[6]
  IC50: 0.25 µM
